Assay results taken from ChEMBL document CHEMBL4000235, “Discovering novel 7-azaindole-based series as potent AXL kinase inhibitors” (Bioorg Med Chem Lett, 2017).
pIC50: −log10 of the molar value.

What was measured:
[1] = biological target: T1, Tyrosine-protein kinase receptor UFO (Homo sapiens, UniProt P30530); assay: Inhibition of recombinant human His-tagged AXL expressed in insect cells after 60 mins by Z'-LYTE assay
T1 sequence (P30530 whole entry): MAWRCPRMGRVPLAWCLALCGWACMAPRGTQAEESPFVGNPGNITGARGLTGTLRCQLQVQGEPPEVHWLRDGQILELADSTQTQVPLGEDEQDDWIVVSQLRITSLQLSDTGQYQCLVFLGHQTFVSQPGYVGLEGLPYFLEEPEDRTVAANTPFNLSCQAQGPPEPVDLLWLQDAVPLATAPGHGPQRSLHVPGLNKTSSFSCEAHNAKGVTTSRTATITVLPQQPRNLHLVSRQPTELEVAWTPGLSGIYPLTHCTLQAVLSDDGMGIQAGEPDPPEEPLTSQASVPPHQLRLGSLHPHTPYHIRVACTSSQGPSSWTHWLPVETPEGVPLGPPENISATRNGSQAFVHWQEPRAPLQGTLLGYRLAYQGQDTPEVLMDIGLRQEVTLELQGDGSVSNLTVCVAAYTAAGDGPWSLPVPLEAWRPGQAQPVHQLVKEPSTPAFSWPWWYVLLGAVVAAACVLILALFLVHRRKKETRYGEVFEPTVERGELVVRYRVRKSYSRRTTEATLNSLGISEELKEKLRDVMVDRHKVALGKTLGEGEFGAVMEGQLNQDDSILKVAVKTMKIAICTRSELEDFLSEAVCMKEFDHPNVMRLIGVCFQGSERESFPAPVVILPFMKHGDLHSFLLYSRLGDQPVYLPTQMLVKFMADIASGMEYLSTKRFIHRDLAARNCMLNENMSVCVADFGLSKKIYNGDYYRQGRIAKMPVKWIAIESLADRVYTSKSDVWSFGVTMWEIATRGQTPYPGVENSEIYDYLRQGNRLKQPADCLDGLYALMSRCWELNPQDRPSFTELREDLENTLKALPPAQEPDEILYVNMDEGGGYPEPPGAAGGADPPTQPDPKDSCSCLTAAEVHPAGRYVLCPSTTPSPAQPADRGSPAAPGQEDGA

[2] = biological target: Tyrosine-protein kinase receptor UFO (Homo sapiens) (UniProt P30530); conditions: 1 uM
Description: Inhibition of recombinant human His-tagged AXL expressed in insect cells at 1 uM after 60 mins by Z'-LYTE assay relative to control

SMILES	pIC50 [1]	inhibition [2] [%]
O=C(O)c1ccc(-c2c[nH]c3ncc(-c4ccccc4)cc23)cc1	6.74	–
c1ccc(-c2cnc3[nH]cc(-c4ccc(-c5nnn[nH]5)cc4)c3c2)cc1	6.28	75
O=C(O)c1cc(-c2c[nH]c3ncc(-c4ccccc4)cc23)ccc1F	< 6.00	–
